In publication PMC10137817, “Efficient Degradation for Raffinose and Stachyose of a β-D-Fructofuranosidase and Its New Function to Improve Gel Properties of Coagulated Fermented-Soymilk” (Gels, 2023):

Target: T1, LcFFase1s (β-D-fructofuranosidase) (Leptothrix cholodnii, UniProt B1Y2A2)
T1 construct: gene Lcho_3297; codon-optimised synthetic gene in pET-28a(+) NdeI/XhoI, E. coli BL21(DE3), Ni-IDA purified (His tag implied, cleavage not mentioned)
T1 sequence (B1Y2A2 1-480): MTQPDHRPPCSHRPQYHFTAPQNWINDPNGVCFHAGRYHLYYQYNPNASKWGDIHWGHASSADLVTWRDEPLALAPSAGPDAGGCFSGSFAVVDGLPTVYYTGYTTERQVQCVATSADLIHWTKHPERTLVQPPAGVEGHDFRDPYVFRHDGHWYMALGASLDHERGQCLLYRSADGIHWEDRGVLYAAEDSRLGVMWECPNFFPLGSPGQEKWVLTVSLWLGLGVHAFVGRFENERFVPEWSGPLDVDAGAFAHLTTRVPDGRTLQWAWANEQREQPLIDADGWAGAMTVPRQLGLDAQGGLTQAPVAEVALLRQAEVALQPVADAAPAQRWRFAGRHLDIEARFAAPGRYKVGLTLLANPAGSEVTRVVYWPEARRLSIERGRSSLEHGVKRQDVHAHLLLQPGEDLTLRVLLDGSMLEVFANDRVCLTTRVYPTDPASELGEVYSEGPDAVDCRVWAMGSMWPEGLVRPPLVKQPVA
Test: TLC of hydrolysis products
Type: biochemical
Settings: 20 mg/mL substrate, 5 U/mL enzyme, 50 mM sodium hydrogen phosphate-citrate pH 6.5, 40 °C

SMILES	TLC of hydrolysis products
OC[C@H]1O[C@H](OC[C@H]2O[C@H](O[C@]3(CO)O[C@H](CO)[C@@H](O)[C@@H]3O)[C@H](O)[C@@H](O)[C@@H]2O)[C@H](O)[C@@H](O)[C@H]1O [raffinose]	LcFFase1s entirely hydrolyzed raffinose and stachyose into fructose and melibiose or raffinose
OC[C@H]1O[C@H](OC[C@H]2O[C@H](OC[C@H]3O[C@H](O[C@]4(CO)O[C@H](CO)[C@@H](O)[C@@H]4O)[C@H](O)[C@@H](O)[C@@H]3O)[C@H](O)[C@@H](O)[C@H]2O)[C@H](O)[C@@H](O)[C@H]1O [stachyose]	LcFFase1s entirely hydrolyzed raffinose and stachyose into fructose and melibiose or raffinose
